# Test results reported in patent US12233129B2, “Methods and compositions for the treatment of cancer” (priority 2019, dated 2025).
# Entries after “also recorded” stand apart in the source; their conditions may differ.
# Legend:
# [1] = tested on: UBXN2A silenced clones of HCT-116; assay: Viability (MTT) and cell death (Sytox red flow cytometry) of UBXN2A silenced cells; assay type: cell-based, human
# Experimental: We decided to confirm whether VTD-induced tumor suppression is indeed mediated via the UBXN2A-mot-2-p53 axis (FIG. 18H). After initial verification with WB (FIG. 18A), HCT-116 (p53+/+ and p53 −/−) and LoVo were treated with VTD for 24, 48, and 72 hours (FIG. 18B-D). […] We defined this phenomenon as a delayed cytotoxic response, since it occurs through UBXN2A transcription, as previously described for other anti-cancer agents. […] In the second set of experiments, we treated two stable UBXN2A silenced clones of HCT-116 along with controls with VTD. […] Staurosporine-treated cells were used as a positive control (S4F). […] Finally, to understand the contribution of mot-2 to the anti-cancer mechanism of VTD, we used a mot-2 inhibitor known as MKT-077 [7] along with VTD in well-differentiated SW-48 (WT-p53) colon cancer cells for 72 hours. Due to the critical role of mot-2 in the mitochondria, we could not use a silencing strategy for mot-2 in this set of experiments.
# The viability of cells was calculated as % of control.
# FIG. 18: Veratridine (VTD) functions via the UBXN2A-mot-2-p53 axis. (A) WB confirmed the presence and the absence of p53 protein in HCT-116 p53^(+/+) and HCT-116 p53^(−/−) cancer cell lines, respectively. […] (F) In another set of experiments, UBXN2A-silenced cells were treated with VTD (100, 200, and 300 μM) for 24 hours. […]
# [2] = tested on: SW480 colon cancer cell line; assay: Flow cytometry of stem cell markers; assay type: cell-based, human; conditions: VTD 72 hours
# Experimental: FIG. 24 panels A-D are examples of FlowJo analysis of CD44 biomarker in SW480 cells treated with VTD for 72 hours.
# SW480 = assay: Long-term (10 days) exposure colony formation / cell viability; assay type: cell-based, human; conditions: VTD 10-300 μM, mutant p53
# Experimental: Because colon cancer cells develop resistance to chemotherapy after an initial response, we decided to investigate whether VTD can potentiate the cytotoxic effect of 5-FU when cells receiving long-term therapy mimicking the in vivo therapy. Cells were treated with VTD for 10 days.
# FIG. 20: Sensitization of colon cancer cells to a long-term suboptimal dose of 5-fluorouracil exposure when combined with VTD. (A-D) (A) HCT-116, (B) LoVo, (C) SW-480, and (D) U2OS were treated with VTD (10-300 μM) for 10 days. […] (E-G) (E) HCT-116, (F) LoVo, and (G) U-2OS were treated with suboptimal doses of 5-FU and VTD (50 and 100 μM) for 10 days. […] (H-I) A series of flow cytometry assays using an antibody against the CD44 cancer stem cell marker illustrated that VTD can target CD44+ colon cancer stem cells and eventually eliminate them in a dose-dependent manner, implicating VTD as a potential cancer stem cell-targeting therapy. (J) Tumor tissue lysates from 48 patients with colon cancer along the matched adjacent normal colon tissue lysates were probed with anti-UBXN2A and anti-Actin antibodies, followed by quantitation and normalization of signals. […] (I) The proposed mechanism action of VTD. VTD increases the expression of UBXN2A, which releases the p53 from mot-2's sequestration and, together with standard chemotherapy, can cause an effective tumor suppression.
# [3] = tested on: HCT-116-iRFP cancer cells; assay: HCT-116-iRFP xenograft mouse model; assay type: in vivo, Hsd:Athymic Nude-Foxn1nu mice; conditions: IP 0.1 mg/kg every other day for 5 weeks versus Ethanol
# Experimental: Five week Hsd:Athymic Nude-Foxn1^nu mice were implanted with 1×10^6 HCT-116-iRFP cancer cells at both flanks followed by IP injection of Ethanol (con) or Veratridine (VTD-0.1 mg/kg) every other day for 5 weeks. Twelve mice were used per treatment with 6 males and 6 females in each group.
# UBXN2A promoter = UBXN2A promoter luciferase high-throughput drug screen in HCT-116 cells; assay type: cell-based, human
# Experimental: Our in vivo results encouraged us to screen for compounds that can enhance expression of UBXN2A. Using the UBXN2A promoter upstream of a luciferase construct that was transiently transfected to HCT-116 cells, we performed a high-throughput drug screen with 1800 FDA approved drugs, synthetic compounds, and natural products. Forty-eight hours after transfection, cells were treated with compounds for 24 hours in triplicate (FIG. 16A). […] We looked at protein expression of UBXN2A as well as P47 (another member of the UBXD family) to confirm the selectivity of VH as a selective enhancer of UBXN2A protein in cells. […] We observed a different level of VH-dependent UBXN2A induction in different segments of the gastrointestinal system (esophagus to rectum; data not shown).
# A cell-based screen was conducted in search of compounds that induce the expression of the UBXN2A gene. The 3.9K base of DNA upstream from the UBXN2A gene on human chromosome 2, including endogenous promoters and necessary enhancers as well as untranslated exon 1, was cloned into MCS-mGL.1, a Gaussia luciferase vector, and transiently transfected into HCT-116 colon cancer cells, with empty MCS-mGL.1 for background expression. […] A glow luciferase activity assay was conducted in triplicate followed by semi-quantitative RT-PCR and WB analysis for UBXN2A, p47 (negative control), or GAPDH± Veratrine or its purified form VTD. […]
compound,measurement,setting,value
"COc1ccc(C(=O)O[C@H]2CC[C@@]3(C)[C@@H]4CC[C@H]5[C@]6(O)C[C@H](O)[C@@]7(O)[C@@H](CN8C[C@@H](C)CC[C@H]8[C@@]7(C)O)[C@]6(O)C[C@@]53O[C@]24O)cc1OC [VTD, Veratridine]",cell viability of UBXN2A silenced cells versus control cells upon VTD,[1]; MTT,greater cell viability than control cells; also recorded: significantly higher as compared to control cells
same,cell death (Sytox red) of UBXN2A silenced cells upon VTD,"[1]; VTD 100, 200 and 300 μM, 24 hours",significant decrease in the cell death; also recorded: significantly decreases cell death
same,CD44+ stem cell population,[2],significant reduction
same,CD133+ stem cell population,[2],significant reduction
same,LgR5+ stem cell population,[2],significant reduction
same,"cell viability, long-term exposure",SW480,no response
same,growth of tumor,[3],slowdown growth of tumor
same,UBXN2A promoter transactivation,UBXN2A promoter,transactivates the UBXN2A promoter
